Measured values: patent US11279708B2, “Amidino- and amino-rocaglates as novel translation inhibitors and anticancer agents” (priority 2019, dated 2022)

Legend:
HEK 293 cells = assay: in cellula translation of transfected (AG)10- and (UC)10-FF/HCV/Ren mRNA; assay type: cell-based; settings: compound added 1 h after mRNA transfection, 6 h exposure
Text: We next asked if differences in behavior among rocaglates towards the (AG)10- and (UC)10-reporters observed in vitro also extended in cellula (FIG. 26B). This was important since in cells, mRNA transcripts need to compete for components of the translation initiation machinery from a complex cellular mRNA pool and this scenario is difficult to recapitulate in experiments using cell-free extracts. Following mRNA transfections, cells were exposed to compound and luciferase activity determined.
RNA Transfections. HEK 293 cells were transfected in a 24 well plate with 0.25 μg/well of in vitro synthesized capped m^7GpppG(AG)10-FF/HCV/Ren or m^7GpppG(UC)10FF/HCV/Ren mRNA and 1 h later were exposed to the indicated concentrations of compounds for an additional 6 h. Following this, extracts were prepared using passive lysis buffer (PLB, Promega) and luciferase activity measured on a Berthold Lumt LB 9507 luminometer.
FIGS. 26A-26B. In cellula activity of rocaglates. 26A. Cytotoxicity of rocaglates towards NIH/3T3 (grey circle) and the NIH/3T3 rocaglate-resistant line, eIF4A^em1JP(redtriangle). Cells were exposed to 40 nM compound for 4 days and viability was measured using the SRB assay. n=3±SD. 26B. Rocaglates show different sequence preferences for inhibiting cap-dependent translation in cellula. HEK 293 cells were transfected with 0.5 μg of in vitro synthesized capped (AG)10-FF/HCV/Ren or (UC)10-FF/HCV/Ren mRNA and 1h later exposed to the indicated concentrations of compounds for an additional 6 h, at which time extracts were prepared and luciferase activity measured. n=3 SD.
FIG. 28. In cellula dose-response of (AG)10- and (UC)10-FF/HCV/Ren mRNAs to hippuristanol and pateamine. Firefly and renilla luciferase activity in response to the indicated compound concentrations (relative to DMSO controls) following mRNA transfections in 293 cells. n=3±SD.

eIF4A1 = biological target: T1, eIF4A1 (Oryctolagus cuniculus, UniProt P29562); assay: RNA pulldowns (RPDs) with biotinylated RNA baits in translation extracts; assay type: binding, Rabbit; settings: 500 nM rocaglate, retic lysate
T1 construct: Rabbit reticulocyte lysates (Promega) were pre-incubated with 500 nM of the indicated compound; tissue Promega; host or cells: rabbit reticulocyte lysate
T1 sequence (P29562 whole entry): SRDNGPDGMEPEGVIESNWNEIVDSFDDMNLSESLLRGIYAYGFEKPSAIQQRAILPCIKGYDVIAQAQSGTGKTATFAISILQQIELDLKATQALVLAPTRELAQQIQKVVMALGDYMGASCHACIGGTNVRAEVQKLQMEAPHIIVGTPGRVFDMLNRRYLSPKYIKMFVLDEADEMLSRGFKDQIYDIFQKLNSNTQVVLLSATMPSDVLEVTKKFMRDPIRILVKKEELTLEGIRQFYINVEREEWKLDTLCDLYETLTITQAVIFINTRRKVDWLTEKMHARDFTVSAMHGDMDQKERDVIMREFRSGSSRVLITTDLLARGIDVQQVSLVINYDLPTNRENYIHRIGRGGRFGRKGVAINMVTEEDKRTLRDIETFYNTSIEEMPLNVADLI
Experimental: To determine the ability of rocaglates to recruit eIF4A to RNA in translation extracts, RNA pulldowns (RPDs) using 30 nt polypurine—or polypyrimidine-biotinylated RNA baits were performed. RNA baits were added to in vitro translation extracts in the presence or absence of rocaglate followed by purification using immobilized streptavidin. […] When the RPDs were performed using ApppG-capped RNA with purified eIF4A1 or eIF4F rather than translation extracts, an increase in eIF4A1:polypyrimidine RNA association with silvestrol was not observed (FIG. 25B).
RNA Pull Down (RPD) Experiments. Rabbit reticulocyte lysates (Promega) were pre-incubated with 500 nM of the indicated compound for 15 minutes at 30° C. prior to the addition of m7GpppG- or ApppG-capped biotinylated RNAs (added to a final concentration of 1 μM biotinylated RNA bait). The reactions were incubated for an additional 15 minutes at 30° C. and then diluted 10× with ice cold wash buffer (0.5% v/v NP-40, 50 mM HEPES (pH 7.3), 150 mM KCl, 2 mM EDTA, 2 mM MgC2,). Magnetic streptavidin beads (NEB) were used to capture the biotinylated RNA baits and the reactions were incubated end over end for 1 hour at 4° C. The beads were then washed three times with ice cold wash buffer (10 minutes per wash) and the RNA bound proteins were eluted by digesting with 50 U of RNaseI (Ambion, AM2294) for 15 minutes at 37° C. Eluted proteins were analyzed by Western blotting.
FIGS. 25A-25B. […] 25A. RPDs performed with the indicated m^7GpppG- or ApppG-capped RNA species incubated in the presence of retic lysate and either vehicle or 500 nM rocaglate. 25B. RPDs performed with m^7GpppG-capped RNA species incubated in the presence of recombinant eIF4A (125 nM) eIF4F or Krebs-2 extracts and either vehicle or 500 nM silvestrol.

eIF4F = biological target: T2, eIF4F (Mus musculus, UniProt P60843); assay: trans-inhibition and eIF4F rescue in Krebs-2 translation extracts; assay type: biochemical; settings: for effect of added eIF4F on compound-induced inhibition (in words): 100 nM compound, eIF4F 10 nM; for effect of m7GpppG-(AG)10 competitor RNA on (UC)10-FF/HCV/Ren translation (in words): 25-fold molar excess competitor
T2 construct: endogenous in cells; host or cells: Krebs-2 cell-free translation extract
T2 sequence (P60843 2-406 limits assumed): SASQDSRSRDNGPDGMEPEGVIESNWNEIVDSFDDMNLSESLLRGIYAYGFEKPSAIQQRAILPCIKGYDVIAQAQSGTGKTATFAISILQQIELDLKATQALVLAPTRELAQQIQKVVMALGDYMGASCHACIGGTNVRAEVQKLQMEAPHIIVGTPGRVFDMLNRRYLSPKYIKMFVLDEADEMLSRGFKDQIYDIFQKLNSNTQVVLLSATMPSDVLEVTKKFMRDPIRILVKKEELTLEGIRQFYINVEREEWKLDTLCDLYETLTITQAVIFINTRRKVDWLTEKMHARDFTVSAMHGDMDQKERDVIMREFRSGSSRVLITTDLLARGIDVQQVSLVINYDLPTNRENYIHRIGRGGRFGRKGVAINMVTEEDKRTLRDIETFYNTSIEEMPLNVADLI
T2 sequence (P63073 2-217 partner limits assumed): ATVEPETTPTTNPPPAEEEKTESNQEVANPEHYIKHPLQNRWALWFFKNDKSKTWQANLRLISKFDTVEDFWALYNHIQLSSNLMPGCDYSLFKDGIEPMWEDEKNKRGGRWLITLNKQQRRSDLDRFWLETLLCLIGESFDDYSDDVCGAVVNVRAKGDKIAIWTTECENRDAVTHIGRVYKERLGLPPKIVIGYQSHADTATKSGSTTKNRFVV
T2 sequence (Q6NZJ6 whole entry partner): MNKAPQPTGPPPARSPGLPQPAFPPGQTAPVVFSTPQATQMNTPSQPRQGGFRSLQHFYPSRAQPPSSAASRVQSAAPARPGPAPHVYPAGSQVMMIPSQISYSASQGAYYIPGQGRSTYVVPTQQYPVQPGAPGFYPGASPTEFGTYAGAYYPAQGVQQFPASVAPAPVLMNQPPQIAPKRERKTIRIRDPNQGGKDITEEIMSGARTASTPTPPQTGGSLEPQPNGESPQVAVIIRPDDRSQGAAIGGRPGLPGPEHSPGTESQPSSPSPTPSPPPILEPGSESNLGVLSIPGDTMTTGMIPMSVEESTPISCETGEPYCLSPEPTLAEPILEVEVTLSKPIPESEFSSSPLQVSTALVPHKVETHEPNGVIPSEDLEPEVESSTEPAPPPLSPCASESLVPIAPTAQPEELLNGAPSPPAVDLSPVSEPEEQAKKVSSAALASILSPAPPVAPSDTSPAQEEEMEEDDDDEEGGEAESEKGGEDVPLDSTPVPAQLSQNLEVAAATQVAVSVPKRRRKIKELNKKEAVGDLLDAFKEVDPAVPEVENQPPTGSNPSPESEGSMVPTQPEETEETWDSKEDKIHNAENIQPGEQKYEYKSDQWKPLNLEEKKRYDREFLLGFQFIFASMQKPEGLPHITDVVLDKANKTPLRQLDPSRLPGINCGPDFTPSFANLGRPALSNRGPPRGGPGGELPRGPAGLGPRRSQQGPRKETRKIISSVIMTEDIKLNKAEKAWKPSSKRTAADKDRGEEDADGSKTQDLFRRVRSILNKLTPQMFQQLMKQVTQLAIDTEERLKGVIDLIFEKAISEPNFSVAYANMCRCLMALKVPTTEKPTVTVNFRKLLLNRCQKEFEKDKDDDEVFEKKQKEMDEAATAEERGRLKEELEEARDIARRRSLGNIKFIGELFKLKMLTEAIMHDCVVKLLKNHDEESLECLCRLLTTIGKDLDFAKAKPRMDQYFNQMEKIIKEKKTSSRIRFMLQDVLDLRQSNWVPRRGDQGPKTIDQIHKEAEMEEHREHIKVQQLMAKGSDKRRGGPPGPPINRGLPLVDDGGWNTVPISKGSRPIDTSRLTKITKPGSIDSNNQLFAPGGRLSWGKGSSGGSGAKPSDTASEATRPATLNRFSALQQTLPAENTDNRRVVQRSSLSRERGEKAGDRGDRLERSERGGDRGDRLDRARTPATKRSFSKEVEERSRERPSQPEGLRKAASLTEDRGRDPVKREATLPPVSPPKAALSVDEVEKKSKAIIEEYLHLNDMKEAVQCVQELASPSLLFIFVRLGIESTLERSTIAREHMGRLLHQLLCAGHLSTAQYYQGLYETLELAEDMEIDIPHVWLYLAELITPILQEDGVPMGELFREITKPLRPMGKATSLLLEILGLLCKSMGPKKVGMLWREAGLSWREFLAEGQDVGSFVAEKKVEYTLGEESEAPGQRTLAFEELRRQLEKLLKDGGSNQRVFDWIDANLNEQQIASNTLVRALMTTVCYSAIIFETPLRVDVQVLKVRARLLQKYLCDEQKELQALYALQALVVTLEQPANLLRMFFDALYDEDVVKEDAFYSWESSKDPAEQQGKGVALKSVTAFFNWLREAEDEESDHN
Text: In addition to a primary effect on translation of the target mRNA to which eIF4F is clamped by the rocaglate, this retention is predicted to lead to a reduction in the limiting eIF4F pool available for ribosome recruitment and could exert a trans-inhibitory effect on mRNAs that are not directly-targeted by rocaglates (i.e., absence of polypurine regions in their 5′ leader regions). To test this, we programmed in vitro translation reactions with (UC)10-FF/HCV/Ren mRNA which we found to be unresponsive to CR-1-31-B (23) and RocA (2) (FIG. 22). These were then supplemented with a 25-fold molar excess m^7GpppG-(AG)10 (SEQ ID NO: 10) or ApppG-(AG)10 (SEQ ID NO: 11) competitor RNA (FIG. 30B). […] In contrast, addition of ApppG-(AG)10 (SEQ ID NO: 11) and CR-1-31-B (23) or RocA (2) had little impact on translation of (UC)10-FF/HCV/Ren mRNA, indicating this to be a cap-dependent phenomenon (FIG. 30C, blue dotted line). If rocaglates decrease the pool of active eIF4F complexes, we posit that the addition of eIF4F to translation extracts should rescue rocaglate-mediated inhibition.
FIGS. 30A-30B. Rocaglates exert effects on eIF4F activity. 30A. RPDs performed with m^7GpppG-capped RNA incubated in the presence of retic lysate and either vehicle or 500 nM rocaglate. 30B. Schematic diagram showing assay assessing trans-inhibition of rocaglates. 30C. The presence of m^7GpppG capped, but not ApppG capped, purine-rich RNAs sensitizes the rocaglate-unresponsive m^7GpppG(UC)10-FF/HCV/Ren reporter to inhibition. Translation reactions were performed in Krebs-2 extracts with 10 nM of m^7GpppG(UC)10-FF/HCV/Ren reporter and 250 nM of competitor RNA. Reactions were incubated at 30° C. for 60 min prior to luciferase measurement. n=3±SD. 30D. The addition of recombinant eIF4F rescues rocaglate mediated translation inhibition. The m^7GpppG(AG)10-FF/HCV/Ren reporter was added to Krebs-2 translation extracts in the presence eIF4F and 100 nM of the indicated compound. Reactions were incubated at 30° C. for 60 min prior to luciferase measurement. n≥3, ±SEM

| SMILES | inhibition of (AG)10 versus (UC)10 reporter in cellula (in words) (HEK 293 cells) | recruitment of eIF4A1 to RNA baits (in words) (eIF4A1) | effect of added eIF4F on compound-induced inhibition (in words) (eIF4F) | effect of m7GpppG-(AG)10 competitor RNA on (UC)10-FF/HCV/Ren translation (in words) (eIF4F) |
| --- | --- | --- | --- | --- |
| COC(=O)[C@@H]1[C@@H](c2ccccc2)[C@]2(c3ccc(OC)cc3)Oc3cc(OC)cc(OC)c3[C@@]23N=C(C)N[C@@]13O [9b] | slight preference for inhibiting the (AG)10-FF/HCV/Ren reporter mRNA |  |  |  |
| CONC(=O)[C@H]1[C@@H](O)[C@@]2(O)c3c(OC)cc(OC)cc3O[C@@]2(c2ccc(OC)cc2)[C@@H]1c1ccccc1 [CR-1-31-B] | showed preference for inhibiting (AG)10-FF/HCV/Ren over (UC)10-FF/HCV/Ren mRNA | eIF4A1 was recruited to the purine-rich mRNA template in a cap-independent manner | partially rescue | sensitized (UC)10-FF/HCV/Ren mRNA to inhibition |
| COc1ccc([C@@]23Oc4cc(OC)cc(OC)c4[C@]2(O)[C@H](O)[C@H](C(=O)N(C)C)[C@H]3c2ccccc2)cc1 [RocA, rocaglamide A] |  | eIF4A1 was recruited to the purine-rich mRNA template in a cap-independent manner |  | sensitized (UC)10-FF/HCV/Ren mRNA to inhibition |
| COC(=O)[C@H]1[C@@H](O)[C@@]2(O)c3c(OC)cc(O[C@@H]4O[C@@H]([C@H](O)CO)CO[C@H]4OC)cc3O[C@@]2(c2ccc(OC)cc2)[C@@H]1c1ccccc1 [silvestrol] | inhibited both reporters equally | induced eIF4A1 binding to both the polypurine and polypyrimidine baits | partially rescue |  |
